Values joined by “and” are separate entries in the source; they are usually repeats but may differ in a detail not shown here. Equal entries are not always repeated. “Also recorded” adds a separate entry of the source.
Test system: ALK-positive advanced NSCLC
Assay: Phase I clinical trial, indication expansion phase: efficacy in ALK-positive patients (group A cohort 1: prior crizotinib only; cohort 2: prior second-generation ALK inhibitor; group C: ALK inhibitor naive)
Format: in vivo, human
Experimental: The anti-tumor efficacy is evaluated according to RECIST version 1.1. For patients initially evaluated as having a complete response (CR) or partial response (PR), efficacy should be confirmed at least 4 weeks later. In the patients with asymptomatic central nervous system (CNS) metastases, in addition to evaluating 5 extracranial target lesions, up to 5 intracranial target lesions will also be evaluated. The specific indicators are as follows:
"ORR" includes CR and PR, and is defined as the proportion of patients who achieve complete response or partial response.
"IC-ORR" includes CR or PR for confirmed intracranial lesions, and is defined as the proportion of the patients with complete response or partial response of intracranial lesions among the patients with intracranial lesions.
"DCR" is defined as the proportion of the patients who achieve response (PR+CR) and stable disease (SD) after a treatment.
"IC-DCR" is defined as the proportion of the patients who achieve intracranial response (PR+CR), intracranial stable disease (SD), and […] after a treatment among the patients with intracranial lesions.
"DOR" is defined as the time from the first assessment of CR or PR to progressive disease or death, and is only applicable to the patients who achieve response.
"IC-DOR" is defined as the time from the first assessment of intracranial CR or intracranial PR to progressive disease or death, and is only applicable to the patients whose intracranial lesions achieve response.
"TTR" is defined as the time from patient enrollment (first dose of investigational drug) to tumor response (CR/PR), based on the patients with objective response.
"IC-TTR" is defined as the time from patient enrollment (first dose of investigational drug) to intracranial tumor response (IC-CR/PR), based on the patients with intracranial objective response.
"PFS" is defined as the time from the first administration of the investigational drug to progressive disease (PD) or death from any cause, whichever comes first.
In the indication expansion phase, an appropriate administration regimen was determined based on the safety, tolerability, PK and efficacy data from the dose escalation phase and dose expansion phase, and the expansion was performed within the target population.
The result of a pregnancy test conducted ≤7 days prior to the first administration of the investigational drug must be negative for the women of childbearing age.

[1] = A cohort 2, prior 3 or more second-generation ALK inhibitors, chemotherapy (N=11)
[2] = A cohort 2, prior 3 or more second-generation ALK inhibitors, no chemotherapy (N=7)
[3] = A cohort 2, prior one second-generation ALK inhibitor, chemotherapy (N=14)
[4] = A cohort 2, prior one second-generation ALK inhibitor, no chemotherapy (N=26)
[5] = A cohort 2, prior two second-generation ALK inhibitors, chemotherapy (N=15)
[6] = A cohort 2, prior two second-generation ALK inhibitors, no chemotherapy (N=24)
[7] = intracranial measurable lesions, Group A, cohort 1 (n=4)

Compound: [2H]C([2H])([2H])n1nc2c(c1C#N)-c1cnc(N)c(c1)O[C@H](C)c1cc(F)ccc1C(=O)N(C)C2 [compound A, (10R)-7-amino-12-fluoro-2-(methyl-d3)-10,16-dimethyl-15-oxo-10,15,16,17-tetrahydro-2H-8,4-(metheno)pyrazolo[4,3-h][2,5,11]benzoxadiazacyclotetradecine-3-carbonitrile]
- ORR (14 patients previously received crizotinib with or without chemotherapy): 71.4%
- ORR (33 ALK TKI-treatment naive patients): 84.8%
- overall ORR (97 patients previously received a second-generation TKI): 39.2%
- BOR CR [1]: 0 n (%)
- BOR NE [1]: 0 n (%)
- BOR PD [1]: 1 (9.1) n (%)
- BOR PR [1]: 3 (27.3) n (%)
- BOR SD [1]: 7 (63.6) n (%)
- Confirmed ORR (95% CI) [1]: 3 (27.3) (6.0, 61.0) n (%)
- DCR (95% CI) [1]: 10 (90.9) (58.7, 99.8) n (%)
- Median TTR (range) [1]: 1.35 (1.28, 7.00) months
- BOR CR [2]: 0 n (%)
- BOR NE [2]: 1 (14.3) n (%)
- BOR PD [2]: 0 n (%)
- BOR PR [2]: 3 (42.9) n (%)
- BOR SD [2]: 3 (42.9) n (%)
- Confirmed ORR (95% CI) [2]: 3 (42.9) (9.9, 81.6) n (%)
- DCR (95% CI) [2]: 6 (85.7) (42.1, 99.6) n (%)
- Median TTR (range) [2]: 1.35 (1.35, 1.45) months
- BOR CR [3]: 0 n (%)
- BOR NE [3]: 1 (7.1) n (%)
- BOR PD [3]: 4 (28.6) n (%)
- BOR PR [3]: 6 (42.9) n (%)
- BOR SD [3]: 3 (21.4) n (%)
- Confirmed ORR (95% CI) [3]: 6 (42.9) (17.7, 71.1) n (%)
- DCR (95% CI) [3]: 9 (64.3) (35.1, 87.2) n (%)
- Median TTR (range) [3]: 2.07 (1.35, 6.90) months
- BOR CR [4]: 0 n (%)
- BOR NE [4]: 0 n (%)
- BOR PD [4]: 6 (23.1) n (%)
- BOR PR [4]: 9 (34.6) n (%)
- BOR SD [4]: 11 (42.3) n (%)
- Confirmed ORR (95% CI) [4]: 9 (34.6) (17.2, 55.7) n (%)
- DCR (95% CI) [4]: 20 (76.9) (56.4, 91.0) n (%)
- Median TTR (range) [4]: 1.38 (1.28, 6.80) months
- BOR CR [5]: 0 n (%)
- BOR NE [5]: 0 n (%)
- BOR PD [5]: 2 (13.3) n (%)
- BOR PR [5]: 6 (40.0) n (%)
- BOR SD [5]: 7 (46.7) n (%)
- Confirmed ORR (95% CI) [5]: 6 (40.0) (16.3, 67.7) n (%)
- DCR (95% CI) [5]: 13 (86.7) (59.5, 98.3) n (%)
- Median DOR (95% CI) [5]: 12.45 (5.39, -) months
- Median TTR (range) [5]: 1.40 (1.31, 2.79) months
- BOR CR [6]: 0 n (%)
- BOR NE [6]: 0 n (%)
- BOR PD [6]: 3 (12.5) n (%)
- BOR PR [6]: 11 (45.8) n (%)
- BOR SD [6]: 10 (41.7) n (%)
- Confirmed ORR (95% CI) [6]: 11 (45.8) (25.6, 67.2) n (%)
- DCR (95% CI) [6]: 21 (87.5) (67.6, 97.3) n (%)
- Median DOR (95% CI) [6]: 12.48 (2.76, -) months
- Median TTR (range) [6]: 1.38 (1.35, 9.72) months
- intracranial ORR (ALK TKI-naive, 8 patients with measurable CNS lesions at baseline): 75%
- median PFS (cohort 2 of group A, FAS, as of April 17, 2024): 6.87 months
- BOR CR [7]: 1 n (%) and 1 (25.0) n (%)
- BOR NE [7]: 0 n (%)
- BOR PD [7]: 0 n (%)
- BOR PR [7]: 1 n (%) and 1 (25.0) n (%)
- BOR SD [7]: 2 (50.0) n (%)
- Confirmed ORR (95% CI) [7]: 2 (50.0) (6.8, 93.2) n (%)
- DCR (95% CI) [7]: 4 (100) (39.8, 100.0) n (%)
- Median DOR (95% CI) [7]: not reached; also recorded: NR (NR, NR)
- Median TTR (range) [7]: 1.36 months and 1.36 (1.35, 1.38) months

— patent EP4810038A1, “METHOD FOR TREATING ALK-POSITIVE OR ROS1-POSITIVE NON-SMALL CELL LUNG CANCER” (Shenzhen TargetRx Co., Ltd., priority 2023, dated 2025)
